# Measured values published in patent publication US20160166604A1, “Thiol-Sensitive Positive Inotropes” (priority 2005, published 2016).
# Where “and” joins values, the source holds several entries; their conditions need not be identical. Equal entries are not always repeated.
# Tests used:
# cAMP = cAMP FRET imaging in neonatal rat cardiomyocytes; format: cell-based; details: applied after AS
# Protocol: Primary cultures of cardiac ventricular myocytes from 1-3 days old Sprague Dawley rats (Charles River Laboratories, Wilmington, Mass.) were prepared as described. Dostal, D. E. et al., Am. J. Physiol., 263, […]-[…] (1992). Cells were transfected with a FRET-based sensor for cAMP (Zaccolo, M. et al., Science, 295, 1711-1715 (2002)) and imaged 48 hrs after transfection. During the experiments, cells were continuously perfused with HEPES buffered Ringer's modified saline (1 mmol/LCaCl2) at room temperature. Cells were imaged on an inverted Olympus IX50 microscope upon excitation at 430 nm. Mongillo, M. et al., Circ. Res., 98, 226-234 (2006). Image analysis was performed by using ImageJ (Rasband, W. S., ImageJ, National Institutes of Health, Bethesda, Md., USA). At each time point, FRET values were measured as the 480 nm/535 nm emission ratio intensity (R) and were normalized to the 480 nm/535 nm value at time 0s (R0). Agents that increase peak Ca^2+ transients coupled to increased sarcomere shortening often do so via a rise in intracellular cAMP and subsequent activation of protein kinase A ([…]. et al., Curr. Med. Chem., 10, 967-981 (2003). To test whether this applied to AS, real-time imaging of cAMP on transfected neonatal rat cardiomyocytes was performed with a cAMP FRET-probe. Zaccolo, M. et al., Science, 295, 1711-1715 (2002). Upon exposure to 1 mM AS, the FRET signal was unchanged (0.3%±0.1%, n=23, p=NS), whereas subsequent application of norepinephrine (10 μM) or phosphodiesterase inhibitor IBMX (100 μM) both increased it by 12% (p<10^-6) (FIG. 2A). Pre-treatment of adult mouse myocytes with the PKA inhibitor […]
# cardiomyocytes = test: Intracellular thiol quantitation (glutathione S-bimane fluorescence, two-photon microscopy); format: cell-based, mouse; details: GSH (ethyl ester) 4 mM for 3 hrs, n=40
# Description: The cationic potentiometric fluorescent dye tetramethylrhodamine methyl ester (TMRM) was used to monitor changes in ΔΨm as previously described. Cortassa, S. et al., Biophys. J., 87, 2060-2073 (2004). The production of the fluorescent glutathione adduct GSB from the reaction of cell permeant monochlorobimane (MCB) with reduced glutathione (GSH), catalyzed by glutathione S-transferase, was used to measure intracellular glutathione levels, as described. Cortassa, S. et al., Biophys. J., 87, 2060-2073 (2004). Experimental recordings started after exposing the cardiomyocytes to an experimental Tyrode's solution. […] Images were recorded using a two photon laser scanning microscope (Bio-Rad MRC-1024MP) with excitation at 740 nm (Tsunami Ti:Sa laser, Spectra-Physics). The red emission of […] was collected at 605±25 nm and the blue fluorescence of GSB was collected at its maximal emission (480 nm). Images were analyzed offline using ItnageJ software (Wayne Rasband, National Institutes of Health, http://rsb.info.nih.gov/ij/). […]
# HNO targets thiol groups on selective proteins. […] Pre-treatment with GSH enhanced intracellular thiol equivalents (+6±1.5% in fluorescence a.u. vs., controls, n=40, p<0.05), as determined by fluorescence assay of glutathione S-bimane production using two-photon microscopy. […]
smiles,measurement,setting,value
NC[C@H](O)c1ccc(O)c(O)c1 [norepinephrine],increase of cAMP FRET signal,cAMP; norepinephrine 10 μM,12%
CC(C)Cn1c(=O)n(C)c(=O)c2[nH]cnc21 [IBMX],increase of cAMP FRET signal,cAMP; IBMX 100 μM,12%
"CCOC(=O)CNC(=O)[C@H](CS)NC(=O)CC[C@H](N)C(=O)O [GSH, GSH ethyl ester]",increase of intracellular thiol equivalents (fluorescence a.u. vs. controls),cardiomyocytes,6% and 6±1.5%
